Where “and” joins values, the source holds several entries; their conditions need not be identical. Equal values may be shown once.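 Five compound concentrations were applied to cells in 96-well plates for 48 hours; endpoints were derived by simple linear interpolation of the resulting dose-response curve. Here, GI50 denotes the concentration required for 50% inhibition of growth. TGI: concentration producing complete growth inhibition.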
Experiments:
Assay in all cases: inhibition of tumour cell growth, NCI panel, 48 h
NCI-H23 lung = system: NCI-H23 lung
SNB-19 CNS = system: SNB-19 CNS
NCI-H460 lung = system: NCI-H460 lung
DLD-1 colon = system: DLD-1 colon
SK-MEL-2 melanoma = system: SK-MEL-2 melanoma
A549 NSCLC = system: A549 NSCLC
HOP-92 NSCLC = system: HOP-92 NSCLC
786-0 renal = system: 786-0 renal
HT29 colon = system: HT29 colon
M14 melanoma = system: M14 melanoma

Compound | TGI (NCI-H23 lung) [µM] | TGI (SNB-19 CNS) [µM] | TGI (NCI-H460 lung) [µM] | TGI (DLD-1 colon) [µM] | TGI (SK-MEL-2 melanoma) [µM] | TGI (A549 NSCLC) [µM] | TGI (HOP-92 NSCLC) | TGI (786-0 renal) [µM] | TGI (HT29 colon) [µM] | TGI (M14 melanoma) [µM] | GI50 (NCI-H23 lung) [µM] | GI50 (SNB-19 CNS) [µM] | GI50 (NCI-H460 lung) [µM] | GI50 (SK-MEL-2 melanoma) [µM] | GI50 (A549 NSCLC) [µM] | GI50 (HOP-92 NSCLC) [µM] | GI50 (786-0 renal) [µM] | GI50 (HT29 colon) [µM] | GI50 (M14 melanoma) [µM]
Cn1c(=O)nc2n(-c3ccc(O)cc3)c3ccccc3nc-2c1=O | > 100 | > 100 | > 100 | > 100 | > 100 | > 100 | > 100 µM | > 100 | > 100 | > 100 |  |  |  |  |  |  |  |  | 
CCSC1=NC2C(N(CC)C(=O)N2CC)N1/N=C/C=C/c1ccccc1[N+](=O)[O-] (stereo not given) | > 100 | > 100 | 12.2 |  | > 100 | > 100 | > 83.8 µM | > 100 | > 100 | > 100 | 0.351 | 0.372 | 0.228 | 0.567 | 0.307 | 1.17 | 0.405 | 0.16 | 0.184
Cc1c(OC(C)C(=O)O)ccc2c(-c3ccccc3)cc(=O)oc12 (stereo not given) | > 100 | > 100 | > 100 | > 100 |  | > 100 | > 100 µM | > 100 | > 100 | > 100 |  |  |  |  |  |  |  |  | 
FC(F)(F)c1cccc(-c2nc3nc(Cl)c(Cl)nc3[nH]2)c1 | 14.7 | > 59.2 | > 30.3 |  | 6.02 | > 40.3 | 9.79 µM | > 65.7 | 9.2 | 30.8 |  |  |  |  |  |  |  |  | 
CCOc1ccccc1CCN=C1NC(=O)/C(=C/c2ccc3ncccc3c2)S1 | > 25 | > 25 | > 25 |  | 11.5 | > 25 | 14.6 µM | > 14.3 | 3.16 | 10.4 | 2.1 | 1.46 | 0.879 | 4.64 | 1.23 | 3.28 | 1.93 | 0.783 | 2.17
CCc1c2c(nc3ccc(OCc4ccc(B(O)O)cc4)cc13)-c1cc3c(c(=O)n1C2)COC(=O)[C@]3(O)CC | 0.304 | > 39.6 | 1.39 |  |  | > 32.3 | 4.36 µM | 1.8 | > 37.7 | 1.66 | < 0.01 | < 0.01 | < 0.0134 | 0.63 | 0.0681 | 0.0366 | < 0.0174 | 0.286 | < 0.0156
CCN1C(=O)N(CC)C2C1NN=c1s/c(=C\c3ccc(Cl)cc3Cl)c(=O)n12 (stereo not given) | > 100 | > 100 | 15.8 |  | > 60 | > 55.5 | 64 µM | > 48.8 | 12.3 |  | 0.0505 | 0.0503 | 0.0347 | 0.0592 | 0.0369 | 0.275 | 0.0509 | 0.0329 | 0.0304
CCc1cccc(C)c1NS(=O)(=O)c1ccccc1 | > 100 |  | > 100 | > 100 | > 100 | > 100 |  | > 100 | > 100 | > 100 |  |  |  |  |  |  |  |  | 
COc1cc(Cl)cc(=O)c(O)c1OC | > 100 | > 100 | > 100 | > 100 | > 100 |  |  | > 100 | > 100 | > 100 |  |  |  |  |  |  |  |  | 
C[N+](C)(C)CCC(=O)CC[N+](C)(C)C | 55.9 | > 100 | 76.9 | 39.2 | 66.1 | > 100 |  | 46.5 | 31.6 | 34.2 |  |  |  |  |  |  |  |  | 
C=C1CCC2C3(C)COC(C)(C)OC3CCC2(C)C1C/C=C1/C(=O)OCC1OC(C)=O (stereo not given) | 16.1 | 29 | 17.7 |  | 15.6 | 12.8 | 24.2 µM | 8.05 | 4.85 | 3.78 | 4.34 | 15.6 | 5.24 | 3.52 | 3.5 | 10.8 | 2.89 | 1.89 | 1.77
CCOC(=O)Oc1c(OC)cc(C(=O)c2ccc(OC)c(O)c2OC)cc1OC | > 100 | > 100 | > 100 |  | > 100 | > 100 | > 100 µM | > 100 | 22.8 | > 100 | 2.29 | 0.821 | 1.78 | 1.79 | 3.96 | 0.727 | 0.475 | 3.13 | 0.319
Cc1nc(C(N)=O)c(N)n1CCN1CCN(C(=O)CCCCCCCCCCNC2N=CNc3nc[nH]c32)CC1 (stereo not given) | > 100 | > 100 | > 100 |  | 44.5 | > 100 | > 100 µM | > 100 | > 100 | 82.8 |  |  |  |  |  |  |  |  | 
CC(CO)Nc1cc(-c2[nH]c3cccnc3c2-c2ccc(F)cc2)ccn1 (stereo not given) | > 25 | > 25 | > 25 |  | > 25 | > 25 | > 25 µM | > 25 | > 25 | > 25 | > 25 | > 21.6 | 8.16 | > 25 | 8.47 | 2.74 | 18.6 | 9.77 | > 25
N#CC(C#N)=C/C=C(\Cl)c1ccc(Cl)cc1 | 9.04 | > 55.2 | > 100 |  | > 100 | 39.3 | 11.4 µM | 15.7 |  | 7.38 | 2.66 | 18.5 | 25.1 | 17.7 | 17.4 | 3.81 | 4.56 | 0.98 | 1.93
C1CSCCCSCCCSCCCSCCCSCCCSCCCSCCCSC1 | > 100 | > 100 | > 100 |  | > 100 | > 100 | > 100 µM | > 100 | > 100 | > 100 |  |  |  |  |  |  |  |  | 
O=C(Nc1cccc(Cl)c1)Nn1cnnc1 | > 100 | > 100 | > 100 |  | > 100 | > 100 | 50 µM and > 100 µM | > 100 | > 100 | > 100 | > 50 | > 50 | > 50 | > 50 | > 50 | 12.7 | > 50 | > 50 | > 50
